Patent US5532267A, “Amidinonaphthyl furancarboxylate derivatives and acid addition salts therof” (Torii & Co., Ltd., priority 1992, dated 1996)

Experiments:
trypsin = molecular target: T1, trypsin (Bos taurus, UniProt P00760); assay: anti-trypsin activity, hydrolysis of TAME (tosylarginine methyl ester); type: biochemical; conditions: hydrolysis of TAME; read-out: Try: molar concentration inhibiting 50% of enzyme activity (IC50)
T1 sequence (P00760 24-246): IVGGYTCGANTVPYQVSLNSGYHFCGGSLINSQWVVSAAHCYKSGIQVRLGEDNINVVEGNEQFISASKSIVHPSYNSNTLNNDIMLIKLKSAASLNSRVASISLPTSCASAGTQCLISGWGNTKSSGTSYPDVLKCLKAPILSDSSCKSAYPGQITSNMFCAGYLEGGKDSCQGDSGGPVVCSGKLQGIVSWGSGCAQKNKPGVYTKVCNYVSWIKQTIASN

plasmin = plasmin (Homo sapiens, UniProt P00747); assay: anti-plasmin activity, hydrolysis of TAME (tosylarginine methyl ester); type: biochemical; conditions: hydrolysis of TAME; read-out: Pla: molar concentration inhibiting 50% of enzyme activity (IC50)
Chain of plasmin (P00747 581-810 limits assumed, species assumed): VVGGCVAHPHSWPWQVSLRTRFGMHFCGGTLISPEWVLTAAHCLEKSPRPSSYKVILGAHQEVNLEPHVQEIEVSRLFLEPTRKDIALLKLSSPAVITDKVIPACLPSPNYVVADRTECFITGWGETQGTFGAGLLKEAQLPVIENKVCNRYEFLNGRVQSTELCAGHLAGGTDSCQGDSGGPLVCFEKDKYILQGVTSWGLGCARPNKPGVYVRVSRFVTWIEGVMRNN
Chain of plasmin (P00747 97-580 partner limits assumed, species assumed): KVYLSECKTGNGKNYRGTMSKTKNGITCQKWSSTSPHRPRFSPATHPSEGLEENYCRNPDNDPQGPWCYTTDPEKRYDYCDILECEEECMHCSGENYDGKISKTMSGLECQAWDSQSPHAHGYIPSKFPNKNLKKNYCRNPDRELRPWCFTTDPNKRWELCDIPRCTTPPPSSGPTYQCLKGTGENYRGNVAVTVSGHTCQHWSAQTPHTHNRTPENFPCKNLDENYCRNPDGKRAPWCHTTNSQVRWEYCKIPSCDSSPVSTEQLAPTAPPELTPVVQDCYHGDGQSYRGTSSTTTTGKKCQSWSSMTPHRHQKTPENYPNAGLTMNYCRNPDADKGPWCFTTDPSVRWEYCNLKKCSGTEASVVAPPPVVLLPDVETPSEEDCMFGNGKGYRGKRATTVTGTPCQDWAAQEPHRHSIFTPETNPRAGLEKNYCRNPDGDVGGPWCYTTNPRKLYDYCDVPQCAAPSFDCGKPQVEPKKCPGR
Protocol: (§1) The values in Table 1 represent molar concentrations (IC50) of test compounds which inhibit 50% of the activity of each enzyme to hydrolyze TAME (tosylarginine methyl ester). The anti-trypsin, anti-plasmin, anti-kallikrein and anti-thrombin activities were determined according to the method of Muramatsu et al. (J. Biochem. (1965), volume 58, page 214).

C1r = molecular target: T2, C1r (Homo sapiens, UniProt P00736); assay: anti-complement (anti-C1 esterase) activity, C1r hydrolysis of AAME (acetyl-arginine methyl ester); type: biochemical; conditions: hydrolysis of AAME; read-out: Clr: molar concentration inhibiting 50% of C1r activity (IC50)
T2 sequence (P00736 18-705): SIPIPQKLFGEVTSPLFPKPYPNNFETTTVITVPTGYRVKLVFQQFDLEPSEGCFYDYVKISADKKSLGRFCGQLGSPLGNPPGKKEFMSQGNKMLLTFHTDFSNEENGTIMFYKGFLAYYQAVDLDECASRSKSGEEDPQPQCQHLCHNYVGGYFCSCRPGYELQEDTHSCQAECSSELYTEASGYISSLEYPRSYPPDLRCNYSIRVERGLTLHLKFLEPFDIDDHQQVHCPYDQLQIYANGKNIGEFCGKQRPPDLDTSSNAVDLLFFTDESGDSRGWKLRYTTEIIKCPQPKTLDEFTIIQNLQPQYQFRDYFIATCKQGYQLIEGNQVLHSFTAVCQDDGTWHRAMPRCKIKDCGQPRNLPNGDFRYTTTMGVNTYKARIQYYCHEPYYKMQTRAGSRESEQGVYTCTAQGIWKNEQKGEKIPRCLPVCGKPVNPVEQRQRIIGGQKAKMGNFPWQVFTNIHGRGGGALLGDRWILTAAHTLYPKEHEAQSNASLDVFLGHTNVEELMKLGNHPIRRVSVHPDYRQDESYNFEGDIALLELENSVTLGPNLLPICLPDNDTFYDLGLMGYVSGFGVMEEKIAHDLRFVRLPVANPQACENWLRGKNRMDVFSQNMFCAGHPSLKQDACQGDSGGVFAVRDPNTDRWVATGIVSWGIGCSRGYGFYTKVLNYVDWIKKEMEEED

C1s = molecular target: T3, C1s (Homo sapiens, UniProt P09871); assay: anti-complement (anti-C1 esterase) activity, C1s hydrolysis of ATEE (acetyltyrosine ethyl ester); type: biochemical; conditions: hydrolysis of ATEE; read-out: Cls: molar concentration inhibiting 50% of C1s activity (IC50)
T3 sequence (P09871 16-688): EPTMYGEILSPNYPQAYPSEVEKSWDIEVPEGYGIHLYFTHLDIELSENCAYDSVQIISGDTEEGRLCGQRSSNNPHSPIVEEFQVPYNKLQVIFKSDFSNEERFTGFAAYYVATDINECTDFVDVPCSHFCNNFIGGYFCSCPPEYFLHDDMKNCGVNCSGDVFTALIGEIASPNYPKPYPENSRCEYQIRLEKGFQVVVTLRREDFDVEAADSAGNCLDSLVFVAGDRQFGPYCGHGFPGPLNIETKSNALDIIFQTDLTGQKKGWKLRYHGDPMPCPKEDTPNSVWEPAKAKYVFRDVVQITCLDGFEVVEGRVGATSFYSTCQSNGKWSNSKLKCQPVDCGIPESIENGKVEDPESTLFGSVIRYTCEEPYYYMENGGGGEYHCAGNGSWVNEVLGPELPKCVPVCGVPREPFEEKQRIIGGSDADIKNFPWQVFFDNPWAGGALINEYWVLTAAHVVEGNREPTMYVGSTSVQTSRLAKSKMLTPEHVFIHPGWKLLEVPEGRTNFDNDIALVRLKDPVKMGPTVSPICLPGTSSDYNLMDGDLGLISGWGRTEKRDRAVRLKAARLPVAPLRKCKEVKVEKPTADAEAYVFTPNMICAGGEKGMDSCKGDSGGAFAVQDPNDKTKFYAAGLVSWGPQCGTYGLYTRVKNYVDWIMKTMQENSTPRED
Protocol: The anti-C1 esterase (C1r, C1s) activity was determined according to the method of Okamura et al. (Biochem. Biophys. Acta (1973), volume 295, pages 252-257). […] The values for C1s represent molar concentrations (IC50) of test compounds which inhibit 50% of the activity of C1s to hydrolyze ATEE (acetyltyrosine ethyl ester).

kallikrein = assay: anti-kallikrein activity, hydrolysis of TAME (tosylarginine methyl ester); type: biochemical; conditions: hydrolysis of TAME; read-out: Kal: molar concentration inhibiting 50% of enzyme activity (IC50)
Protocol: as §1

thrombin = thrombin (Homo sapiens, UniProt P00734); assay: anti-thrombin activity, hydrolysis of TAME (tosylarginine methyl ester); type: biochemical; conditions: hydrolysis of TAME; read-out: Thr: molar concentration inhibiting 50% of enzyme activity (IC50)
Protocol: as §1

adjuvant arthritis = assay: Effectiveness in treating adjuvant arthritis (Mycobacterium butyricum); type: in vivo, rat; conditions: 60 mg/kg, oral, day -1 to day 13
Protocol: Adjuvant arthritis is known as a representative model of autoimmune diseases and is a effective means of testing agents to treat human rheumatoid arthritis (Encyclopedia of Immunology, edited by I. M. Roitt, Academic Press, 1992; Otterness, I. G., et al., J. of Rheumatology (1991), volume 18, pages 505-511),
The method of experiment was as follows. A 0.6% Mycobacterium butyricum liquid paraffin suspension, 0.1 ml/animal, was administered to a rat at a subcutaneous site of left hind-limb sole to induce adjuvant arthritis. The present compound was orally administered (in the form of a suspension in water) consecutively from 1 day before the induction to 13 days after the induction. The efficacy of the present compound on adjuvant arthritis was evaluated by examining the swelling accompanied by red spots and subcutaneous knots at the fore-limb, hind-limb, tail, ear and periphery of eye with the lapse of days (on the 8th, 10th, 12th, 14th, 16th and 18th days after adjuvant administration), expressing the results in terms of scores according to the method of F. D. Wood et al. (Int. Arch. Allergy (1969), volume 35, pages 456-467), and calculating the percentage inhibition relative to the control group. Thus, the higher value of percentage inhibition indicates the higher effectiveness.

Masugi's nephritis = assay: Effectiveness in treating Masugi's nephritis (experimental glomerulonephritis), protein in urine; type: in vivo, rat; conditions: 10 mg/kg, oral; mean ± standard deviation, 7 animals; control group 40.8 ± 15.1
Protocol: […] […] As the index to effectiveness, the protein concentration in urine was determined. That is, when inflammation develops in the kidney, it causes damage to renal tubules, etc., and a resultant increase in protein concentration in urine.

Compound: Cl.N=C(N)c1ccc2cc(OC(=O)c3ccc(CNC(=O)CC(=O)O)o3)ccc2c1 [Example 17, 6-Amidino-2-naphthyl 5-carboxyacetylaminomethylfuran-2-carboxylate hydrochloride]
- IC50 (trypsin): 0.47 µM
- IC50 (plasmin): 0.043 µM
- IC50 (C1r): 1.7 µM
- IC50 (C1s): 0.053 µM
- IC50 (kallikrein): 1.1 µM
- IC50 (thrombin): 1.9 µM
- Percentage inhibition (arthritis score) (adjuvant arthritis): 75.1%
- Protein concentration in urine (Masugi's nephritis): 2.0 ± 2.0 mg/mL
